Measured values published in patent US20170290801A1 (Hill's Pet Nutrition, Inc., priority 2009, published 2017).

Assay: in vivo
Design: species or system dogs
Settings: dog; for AUC0-infinity / AUC(0-inf): po; for AUC(0-inf): AUC0-infinity
Protocol: The control food without ALA is fed throughout the study period. The analytical results of the foods fed in this study are in Table 1. A three period Latin square design was used to create a 3×3 factorial arrangement of treatments with dogs assigned to a group following a planned treatment assignment. […] Pharmacokinetic parameters are calculated using a non-compartmental model and analyzed using non-parametric tests of WinNonlin 4.1 in SAS v9.]. There was a significant effect of dose for all delivery methods (P<0.05). […]

For `O=C(O)CCCCC1CCSS1` (racemic) [lipoic acid, dl-alpha-lipoic acid], the “elimination half life, co-manufactured food compared with capsule” value was “greater”, the “maximum serum concentrations, effect of delivery method” value was “lower maximum serum concentrations” and the “total area under the curve, co-manufactured food compared with capsule” value was “greater”. The AUC0-infinity (12.5 mg/kg) was 92215 ng·min/mL, the AUC(0-inf) (12.5 mg/kg) was 1.24 µg·h/mL and the AUC0-infinity (25 mg/kg) was 227304 ng·min/mL. The AUC(0-inf) (25 mg/kg) was 3.58 µg·h/mL.
